Consider 54 molecules from paper PMC12390684 (Viruses, 2025).

Where “and” joins values, the source holds several entries; their conditions need not be identical. Equal entries are not always repeated.

This assay concerns the target IN-GCN2 interaction (6xHis-IN / GST-GCN2) (UniProt P04585+Q9P2K8). The assay can be described thus: biochemical. Type of assay: binding, HIV-1 IN; human GCN2. The following applies: screen, single dose 100 µM, single replicate; residual AlphaLISA signal normalized to DMSO control.

IN-GCN2 interaction (6xHis-IN / GST-GCN2), sequence (Q9P2K8 192-1024, other chains not shown): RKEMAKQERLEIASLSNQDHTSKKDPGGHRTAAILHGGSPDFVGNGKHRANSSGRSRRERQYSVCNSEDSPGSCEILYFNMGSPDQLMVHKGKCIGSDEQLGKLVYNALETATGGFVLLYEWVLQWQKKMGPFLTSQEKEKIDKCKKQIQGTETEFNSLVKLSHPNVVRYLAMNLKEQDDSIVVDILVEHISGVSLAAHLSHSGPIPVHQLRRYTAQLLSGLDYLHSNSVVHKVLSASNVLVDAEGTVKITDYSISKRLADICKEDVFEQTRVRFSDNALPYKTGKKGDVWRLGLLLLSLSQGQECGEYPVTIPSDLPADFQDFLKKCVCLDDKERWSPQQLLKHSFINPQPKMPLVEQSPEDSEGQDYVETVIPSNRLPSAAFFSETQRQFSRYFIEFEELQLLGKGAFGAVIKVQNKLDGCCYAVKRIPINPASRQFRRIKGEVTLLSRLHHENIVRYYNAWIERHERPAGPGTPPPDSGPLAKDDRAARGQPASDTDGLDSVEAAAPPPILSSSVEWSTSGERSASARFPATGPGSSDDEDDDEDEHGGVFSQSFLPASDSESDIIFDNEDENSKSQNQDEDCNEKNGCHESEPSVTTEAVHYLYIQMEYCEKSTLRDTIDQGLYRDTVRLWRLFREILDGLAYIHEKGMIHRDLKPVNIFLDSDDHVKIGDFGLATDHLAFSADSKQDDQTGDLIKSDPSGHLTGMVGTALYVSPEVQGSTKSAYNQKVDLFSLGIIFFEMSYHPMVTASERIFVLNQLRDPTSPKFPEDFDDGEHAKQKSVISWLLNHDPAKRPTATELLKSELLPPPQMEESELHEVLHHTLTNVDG

`COc1ccc(-c2c(C)c(C(=O)O)nc(-c3ccc4c(O)c(OC)c5c(c4n3)=NC(C)(C)N=5)c2N)c(O)c1OC` [NSC62709]: the “IN-GCN2 interaction (%)” value is reported as 123.77%.

With `COc1cccc2c1[C@H](CO)N1[C@H](C#N)[C@@H]3C[C@H](C(=O)O)[C@@H]([C@@H]1C2)N3C` [NSC607097], the “IN-GCN2 interaction (%)” value is 110.01%.

Take `CO[C@@H](/C(C)=C/C=C/C(C)=C/c1coc(C)n1)[C@@H](C)[C@@H]1C[C@H](O)[C@@]2(C)O[C@@H]2/C=C/[C@@H](C)[C@H]2C[C@H](CC(=O)O2)C[C@@H]2O[C@H]2C(=O)O1` [NSC332598]: the “IN-GCN2 interaction (%)” value is on record as 94.06%.

Regarding `CC1=C2C(=CC(C)(C)[C@@H]2O)C(=O)[C@](C)(O)C12CC2` [NSC400978], the “IN-GCN2 interaction (%)” value is 28.97%.

With `C[N+]1(C)C2CC(OC(=O)C(CO)c3ccccc3)CC1C1OC12` (stereo not drawn) [NSC61809], the “IN-GCN2 interaction (%)” value was 93.88%.

Take `COc1cc2c3c(c1OC)-c1cc4c(cc1C[C@@H]3N(C)CC2)OCO4` [NSC785161]: the “IN-GCN2 interaction (%)” value is listed as 55.76%.

Regarding `COc1cc2c3c(c1O)-c1ccccc1CC3N(C)CC2` (stereo not drawn) [NSC785177], the “IN-GCN2 interaction (%)” value is 73.43%.

Consider `COc1cc2c(cc1OC)C(c1cc(OC)c(OC)c(OC)c1)C1(O)C(=O)OCC1(O)C2` (stereo not drawn) [NSC50132], for which the “IN-GCN2 interaction (%)” value came to 86.33%.

In the case of `CC1(C)C[C@]23[C@@H]4COC(=O)[C@H]2CC[C@H]1[C@@H]3CC4=O` [NSC284437], the “IN-GCN2 interaction (%)” value is given as 100.65%.

Consider `O=C1C[C@@H]2OCC=C3C[N+]4([O-])CC[C@]56c7ccccc7N1[C@H]5[C@H]2[C@H]3C[C@@H]64` (stereo partly drawn) [NSC24951], for which the “IN-GCN2 interaction (%)” value amounted to 106.44%.

`CC(C)=CCc1ccc(O)c(=O)cc1C(C)C` [NSC43339]: the “IN-GCN2 interaction (%)” value was 101.87%.

As to `COC(=O)c1ccc(O)c2nc3c(C=O)c(O)cc(O)c3nc12` [NSC106995], the “IN-GCN2 interaction (%)” value turned out to be 28.53%.

For the molecule `COc1cc2c(c(OC)c1O)-c1ccc(OC)c(=O)cc1[C@@H](NC(=O)C(F)(F)F)CC2` [NSC335989], the “IN-GCN2 interaction (%)” value was determined as 89.57%.

In the case of `CC1CCOC(=O)/C=C/C=C/C(=O)OC2CC3OC4C5OC5(C)C(O)CC4(COC(=O)C1O)C2(C)C31CO1` (stereo not drawn) [NSC328166], the “IN-GCN2 interaction (%)” value worked out at 102.91%.

Consider `COc1ccc([C@@H]2CC(=O)c3c(O)cc(O[C@@H]4O[C@H](CO[C@@H]5O[C@@H](C)[C@H](O)[C@@H](O)[C@H]5O)[C@@H](O)[C@H](O)[C@H]4O)cc3O2)cc1O` [NSC31048], for which the “IN-GCN2 interaction (%)” value is 142.54%.

`COc1cc2c(c(OC)c1OC)-c1ccc(OC)c(=O)cc1[C@@H](NC(C)=O)CC2` [NSC757]: the “IN-GCN2 interaction (%)” value is on record as 116.47%.

Turning to `CC(=O)O[C@H]1C[C@H](O[C@H]2[C@@H](O)C[C@H](O[C@H]3[C@@H](O)C[C@H](O[C@H]4CC[C@@]5(C)[C@H](CC[C@@H]6[C@@H]5C[C@@H](O)[C@]5(C)[C@@H](C7=CC(=O)OC7)CC[C@]65O)C4)O[C@@H]3C)O[C@@H]2C)O[C@H](C)[C@H]1O[C@@H]1O[C@H](CO)[C@@H](O)[C@H](O)[C@H]1O` [NSC7533], the “IN-GCN2 interaction (%)” value was determined as 107.72%.

`CC1(C)[C@H](C(=O)O)CC[C@]1(C)C(=O)O` [NSC824]: the “IN-GCN2 interaction (%)” value is 90.14%.

Take `CC(C)=CCc1c2c(c3occ(-c4ccc(O)c(O)c4)c(=O)c3c1O)C=CC(C)(C)O2` [NSC5113]: the “IN-GCN2 interaction (%)” value is 36.50%.

With `CC1=C2[C@H]3OC(=O)[C@@H](C)[C@@H]3CC[C@@]2(C)C=C/C1=N\O` [NSC42038], the “IN-GCN2 interaction (%)” value turned out to be 112.40%.

Regarding `CC(C)[C@H]1CC[C@@](C)(C(=O)O)C1` [NSC8973], the “IN-GCN2 interaction (%)” value was found to be 89.12%.

On to `COC1=CC(=O)OC(CCc2ccc3c(c2)OCO3)C1` (stereo not drawn) [NSC23878], for which the “IN-GCN2 interaction (%)” value is reported as 70.38%.

On to `CCC1CN(C)C2Cc3c([nH]c4ccccc34)C(=O)CC1C2C(=O)OC` (stereo not drawn) [NSC108088], for which the “IN-GCN2 interaction (%)” value is 78.52%.

For the molecule `O=C1c2ccccc2C(=O)c2c1cc(O)c(O)c2O` [NSC31754], the “IN-GCN2 interaction (%)” value was 87.55%.

With `CC(=O)O[C@H]1C[C@H](O[C@H]2[C@@H](O)C[C@H](O[C@H]3[C@@H](O)C[C@H](O[C@H]4CC[C@@]5(C)[C@H](CC[C@@H]6[C@@H]5CC[C@]5(C)[C@@H](C7=CC(=O)OC7)[C@@H](O)C[C@]65O)C4)O[C@@H]3C)O[C@@H]2C)O[C@H](C)[C@H]1O[C@@H]1O[C@H](CO)[C@@H](O)[C@H](O)[C@H]1O` [NSC7535], the “IN-GCN2 interaction (%)” value amounted to 83.30%.

Regarding `COc1cc2c3c(c1O)C1(C=CC(=O)C=C1)C[C@@H]3N(C)CC2` [NSC785166], the “IN-GCN2 interaction (%)” value was 94.62%.

As for `C/C=C(/C)C(=O)O[C@H]1CCN2CC=C(COC(=O)[C@@](O)([C@H](C)OC)C(C)(C)O)[C@H]12` [NSC30625], the “IN-GCN2 interaction (%)” value is 106.60%.

Take `CNC[C@H](O)c1ccc(O)c(O)c1` [NSC62786]: the “IN-GCN2 interaction (%)” value is 108.20%.

In the case of `COC1[C@H](O)[C@@H](O)C(O)[C@H](O)[C@H]1O` (stereo partly drawn) [NSC26254], the “IN-GCN2 interaction (%)” value is listed as 90.47%.

In the case of `CC1(C)CCC2=C(O1)c1ccccc1C(=O)C2=O` [NSC26326], the “IN-GCN2 interaction (%)” value was found to be 107.59%.

Regarding `CC(C)[C@@](O)(C(=O)OCC1=CCN2CC[C@H](O)[C@@H]12)[C@H](C)O` [NSC89937], the “IN-GCN2 interaction (%)” value is 65.06%.

Regarding `CC(=O)O[C@@H]1C[C@H]2C(C)(C)C(=O)C=C[C@]2(C)[C@H]2CC[C@@]3(C)[C@H](c4ccoc4)OC(=O)[C@H]4O[C@]43[C@@]21C` [NSC113497], the “IN-GCN2 interaction (%)” value was 59.74%.

On to `COc1cc([C@@H]2c3cc4c(c(O)c3C[C@H]3COC(=O)[C@@H]32)OCO4)cc(OC)c1OC` [NSC24819], for which the “IN-GCN2 interaction (%)” value is recorded as 89.45%.

In the case of `COc1ccc2c3c([nH]c2c1)[C@H](C=C(C)C)N1C(=O)[C@@H]2CCCN2C(=O)[C@@H]1C3` [NSC719655], the “IN-GCN2 interaction (%)” value worked out at 66.56%.

As to `COC1CCC(OC2CC(C3(C)CCC4(CC(O)C(C)C(C(C)/C=C(\C)C(=O)C(C)CC(C)C(=O)O)O4)O3)OC3(OC(C4OC(O)(CO)C(C)CC4C)CC3C)C2C)OC1C` (stereo not drawn) [NSC138320], the “IN-GCN2 interaction (%)” value is 102.91% and 57.85%.

With `O=C1N[C@@H]2C(=C[C@H](O)[C@@H](O)[C@H]2O)c2cc3c(c(O)c21)OCO3` [NSC266535], the “IN-GCN2 interaction (%)” value was 138.97%.

Take `CC(C)[C@@H]1NC(=O)[C@H](C)OC(=O)[C@@H](C(C)C)NC(=O)[C@@H](C(C)C)OC(=O)[C@H](C(C)C)NC(=O)[C@H](C)OC(=O)[C@@H](C(C)C)NC(=O)[C@@H](C(C)C)OC(=O)[C@H](C(C)C)NC(=O)[C@H](C)OC(=O)[C@@H](C(C)C)NC(=O)[C@@H](C(C)C)OC1=O` [NSC122023]: the “IN-GCN2 interaction (%)” value is given as 63.87%.

Consider `COC(=O)[C@@H]1[C@H]2C[C@@H]3c4[nH]c5ccccc5c4CCN3C[C@@H]2CC[C@@H]1O` [NSC72116], for which the “IN-GCN2 interaction (%)” value turned out to be 99.30%.

For the molecule `C=C(NC(=O)C(=C)NC(=O)c1csc(C2=NC3c4csc(n4)C4NC(=O)c5csc(n5)C(C(C)(O)C(C)O)NC(=O)C5CSC(=N5)/C(=C\C)NC(=O)C(C(C)O)NC(=O)c5csc(n5)C3(CC2)NC(=O)C(C)NC(=O)C(=C)NC(=O)C(C)NC(=O)C(C(C)CC)NC2C=Cc3c(C(C)O)cc(nc3C2O)C(=O)OC4C)n1)C(N)=O` (stereo not drawn) [NSC170365], the “IN-GCN2 interaction (%)” value was determined as 53.53%.

Regarding `O=C1NC(O)CCN1[C@@H]1O[C@H](CO)[C@@H](O)[C@H]1O` (stereo partly drawn) [NSC112907], the “IN-GCN2 interaction (%)” value was 123.97%.

In the case of `COc1cc2c(c(OC)c1OC)-c1ccc(SC)c(=O)cc1[C@@H](NC(=O)C(F)(F)F)CC2` [NSC320301], the “IN-GCN2 interaction (%)” value turned out to be 97.92%.

On to `CC[C@H]1NC(=O)[C@@H](NC(=O)c2ncccc2O)[C@@H](C)OC(=O)[C@H](c2ccccc2)NC(=O)[C@@H]2CC(=O)CCN2C(=O)[C@H](Cc2ccccc2)N(C)C(=O)[C@@H]2CCCN2C1=O` [NSC177858], for which the “IN-GCN2 interaction (%)” value is reported as 35.20%.

As to `O=c1[nH]c(=O)c2[nH]cnc2[nH]1` [NSC14664], the “IN-GCN2 interaction (%)” value is recorded as 105.35%.

Regarding `C=C[C@H]1CN2CC[C@H]1C[C@H]2C(=O)c1ccnc2ccc(OC)cc12` [NSC15307], the “IN-GCN2 interaction (%)” value turned out to be 84.16%.

For the molecule `COc1cc(O[C@@H]2O[C@H](CO)[C@@H](O)[C@H](O)[C@H]2O)c2c(c1)O[C@H](c1ccc(O)cc1)CC2=O` [NSC407308], the “IN-GCN2 interaction (%)” value is on record as 92.73%.

In the case of `CC(=O)O[C@H]1C[C@H](O[C@H]2[C@@H](O)C[C@H](O[C@H]3[C@@H](O)C[C@H](O[C@H]4CC[C@@]5(C)[C@H](CC[C@@H]6[C@@H]5CC[C@]5(C)[C@@H](C7=CC(=O)OC7)CC[C@]65O)C4)O[C@@H]3C)O[C@@H]2C)O[C@H](C)[C@H]1O[C@@H]1O[C@H](CO)[C@@H](O)[C@H](O)[C@H]1O` [NSC7532], the “IN-GCN2 interaction (%)” value is recorded as 117.74%.

As for `COc1c(O)cc2oc3cc(O)c(CC=C(C)C)c(O)c3c(=O)c2c1CC=C(C)C` [NSC30552], the “IN-GCN2 interaction (%)” value is 60.59%.

With `COc1ccc(-c2oc3cc(O)c(OC)c(O)c3c(=O)c2OC)cc1O` [NSC106969], the “IN-GCN2 interaction (%)” value stood at 98.61%.

As to `CO[C@H]1/C=C/O[C@@]2(C)Oc3c(C)c(O)c4c(O)c(cc(O)c4c3C2=O)NC(=O)/C(C)=C\C=C\[C@H](C)[C@H](O)[C@@H](C)[C@@H](O)[C@@H](C)[C@H](OC(C)=O)[C@@H]1C` [NSC133100], the “IN-GCN2 interaction (%)” value is listed as 111.79%.

In the case of `C[C@@H]1O[C@@H](O[C@@H]2C=C3CC[C@@H]4[C@H](CC[C@]5(C)[C@@H](c6ccc(=O)oc6)CC[C@]45O)[C@@]3(C)CC2)[C@H](O)[C@H](O)[C@H]1O` [NSC7521], the “IN-GCN2 interaction (%)” value stood at 97.97%.

For the molecule `CCC(C(=O)C(C)C(O)C(C)CCc1ccc(C)c(O)c1C(=O)O)C1OC(CC)(C2CCC(O)(CC)C(C)O2)CC1C` (stereo not drawn) [NSC177406], the “IN-GCN2 interaction (%)” value came to 94.24%.

With `COC1=C2C[C@@H](C)C[C@H](OC)[C@H](O)[C@@H](C)/C=C(\C)[C@H](OC(N)=O)[C@@H](OC)/C=C\C=C(/C)C(=O)NC(=CC1=O)C2=O` [NSC122750], the “IN-GCN2 interaction (%)” value worked out at 116.21%.

For the molecule `C=C1C(=O)OC2CCN3CC=C(COC(=O)C(C)(O)C4(CO4)C1C)C23` (stereo not drawn) [NSC129230], the “IN-GCN2 interaction (%)” value worked out at 110.22%.

As to `CCCCCC[C@@H](O)C/C=C\CCCCCCCC(=O)[O-].[Na+]` [NSC2835], the “IN-GCN2 interaction (%)” value is listed as 143.81%.
